Some test systems named below: EKVX NSCLC; UACC-62 melanoma; U251 CNS; HT29 colon; 786-0 renal; HCT-15 colon; HCC-2998 colon; SK-MEL-5 melanoma; PC-3 prostate.
Common to all, as to test: inhibition of tumour cell growth, NCI panel, 48 h

The record followed here is PubChem BioAssay (NCI).

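48-hour exposure; five concentrations; linearly interpolated endpoints. The concentration for 50% growth inhibition is given as GI50. TGI marks complete inhibition of growth.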 A value given as a limit tells only on which side of the number the result lay.

Regarding `CCOC(=O)C[C@@H](C)[C@]1(C(=O)OC)CCCC1=O`, the TGI in the assay on EKVX NSCLC, in the assay on UACC-62 melanoma, with U251 CNS, with HT29 colon, in the assay with 786-0 renal and in the assay on HCT-15 colon was more than 100 µM in each case. Moreover, the TGI in the assay on HCC-2998 colon and in the assay with SK-MEL-5 melanoma was more than 100 µM each time.
As for `COCc1c(CO)cnc(C)c1OC1OC(CO)C(O)C(O)C1O` (configuration not stated), the TGI in the assay with EKVX NSCLC, in the assay on UACC-62 melanoma, with U251 CNS, with HT29 colon, in the assay on 786-0 renal and with HCT-15 colon was more than 100 µM in each case. In addition, the TGI in the assay on HCC-2998 colon and with SK-MEL-5 melanoma was more than 100 µM each time.
As for `COc1cccc(NC(=O)C(C)(C)C)c1C=O`, the TGI in the assay with EKVX NSCLC, in the assay on UACC-62 melanoma, in the assay on U251 CNS, with HT29 colon, in the assay with 786-0 renal and in the assay with HCT-15 colon was more than 100 µM throughout. The TGI in the assay with HCC-2998 colon and with SK-MEL-5 melanoma was more than 100 µM throughout.
Take `CCN(CC)CC.CCOc1ccc(NC(=O)N=C=[N-])cc1.[CH-]1CCCCC1.[CH-]1CCCCC1.[CH-]1CCCCC1.[Cl-].[Sn+4]`: the GI50 in the assay on EKVX NSCLC was 0.043 µM; in the assay with UACC-62 melanoma it was 0.0228 µM; in the assay on U251 CNS, 0.0261 µM; with HT29 colon it was 0.022 µM; in the assay on PC-3 prostate, 0.0596 µM; with 786-0 renal, 0.0157 µM. The GI50 in the assay on HCT-15 colon was 0.0198 µM; in the assay with HCC-2998 colon, 0.0255 µM; with SK-MEL-5 melanoma it was 0.0303 µM. Also, the TGI in the assay with EKVX NSCLC worked out at 0.143 µM; in the assay on UACC-62 melanoma it was 0.0559 µM; with U251 CNS it was 0.0718 µM; in the assay on HT29 colon, 0.0467 µM; in the assay on PC-3 prostate it was 0.21 µM; with 786-0 renal it was 0.0372 µM. Besides, the TGI in the assay with HCT-15 colon worked out at 0.0555 µM; in the assay with HCC-2998 colon it was 0.0669 µM; with SK-MEL-5 melanoma, 0.0941 µM.
`CCCCCCCCCCCCCCCCOCC(CN(C)CCN(C)C)OCCCCCCCCCCCCCCCC` (configuration not stated): the TGI with EKVX NSCLC, in the assay with UACC-62 melanoma, in the assay with U251 CNS, in the assay on HT29 colon, in the assay with 786-0 renal and in the assay on HCT-15 colon was more than 100 µM throughout. Besides, the TGI in the assay on HCC-2998 colon and with SK-MEL-5 melanoma was more than 100 µM in each case.
Take `Cc1ccc(-n2c3nc(=O)n(C)c(=O)c-3nc3ccccc32)cc1`: the TGI in the assay on EKVX NSCLC is 38.4 µM; with UACC-62 melanoma, 5.52 µM; in the assay on U251 CNS it was 39.8 µM; with HT29 colon, 19.1 µM; in the assay with 786-0 renal it was more than 100 µM; with HCT-15 colon, 23.7 µM. Further, the TGI in the assay with HCC-2998 colon is 20.6 µM; in the assay on SK-MEL-5 melanoma it was 26.2 µM.
Consider `Nc1nc(Cl)cc(NCCCCCNc2cc(Cl)nc(N)n2)n1`, for which the TGI with EKVX NSCLC was more than 100 µM; in the assay with UACC-62 melanoma, 83.9 µM; in the assay with U251 CNS it was more than 100 µM; in the assay on HT29 colon, more than 100 µM; in the assay with 786-0 renal it was more than 100 µM; in the assay on HCT-15 colon, more than 100 µM. Moreover, the TGI in the assay with HCC-2998 colon and in the assay on SK-MEL-5 melanoma was more than 100 µM in each case.
With `N.N.N.N.O=NN1CCCCCC1(P(=O)([O-])[O-])P(=O)([O-])[O-].[Pt+4].[Pt+4]`, the GI50 with EKVX NSCLC, with UACC-62 melanoma, with U251 CNS, in the assay on HT29 colon, in the assay with 786-0 renal and in the assay with HCT-15 colon was more than 100 µM each time. The GI50 in the assay on HCC-2998 colon and in the assay on SK-MEL-5 melanoma was more than 100 µM in each case. The TGI in the assay with EKVX NSCLC, with UACC-62 melanoma, with U251 CNS, with HT29 colon, with 786-0 renal and in the assay on HCT-15 colon was more than 100 µM in each case. Moreover, the TGI in the assay on HCC-2998 colon and in the assay on SK-MEL-5 melanoma was more than 100 µM throughout.
Regarding `CC(=O)NC(CCCCN(Cc1ccccc1)C(=O)NCCCl)C(=O)NCc1ccccc1` (configuration not stated), the TGI with EKVX NSCLC, in the assay with UACC-62 melanoma, with U251 CNS, with HT29 colon, with 786-0 renal and with HCT-15 colon was more than 100 µM in each case. In the assay on HCC-2998 colon, this compound had a TGI of more than 100 µM.
With `O=C1OC(c2ccccc2)=N/C1=C\c1ccc2ccccc2c1`, the TGI with EKVX NSCLC, with UACC-62 melanoma, with U251 CNS, with HT29 colon, in the assay on 786-0 renal and in the assay with HCT-15 colon was more than 100 µM throughout. Further, the TGI in the assay with SK-MEL-5 melanoma was more than 100 µM.
As for `C=CCCCn1ccc2ccccc21`, the TGI in the assay on EKVX NSCLC, in the assay on UACC-62 melanoma, with U251 CNS, with HT29 colon, in the assay on 786-0 renal and in the assay on HCT-15 colon was more than 100 µM throughout. Further, the TGI with HCC-2998 colon and with SK-MEL-5 melanoma was more than 100 µM each time.
As for `O=C(Cc1nc2ccccc2s1)Nc1ccc(Cl)cc1`, the TGI with EKVX NSCLC, with UACC-62 melanoma, in the assay with U251 CNS, in the assay on HT29 colon, in the assay on 786-0 renal and with HCC-2998 colon was more than 100 µM throughout. Besides, the TGI with SK-MEL-5 melanoma was more than 100 µM.
On to `O=C(NCCO)c1cc2c(cn1)[nH]c1ccccc12`, for which the TGI is more than 100 µM in the assay on EKVX NSCLC; more than 100 µM in the assay on UACC-62 melanoma; more than 100 µM with U251 CNS; more than 100 µM with HT29 colon; 33.7 µM in the assay with 786-0 renal; more than 100 µM with HCT-15 colon. In addition, the results for the TGI in the assay on HCC-2998 colon and in the assay with SK-MEL-5 melanoma were 33.2 µM and more than 100 µM, respectively.
In the case of `O=C(O)C1=C(C(=O)Nc2ccccc2)C2C=CC1C2` (configuration not stated), the TGI in the assay with EKVX NSCLC, with UACC-62 melanoma, with U251 CNS, in the assay with HT29 colon, in the assay with 786-0 renal and in the assay with HCT-15 colon was more than 100 µM in each case. In addition, the TGI in the assay on HCC-2998 colon and with SK-MEL-5 melanoma was more than 100 µM in each case.
